Tests used:
[1] = tested on: Cabbage Looper (Trichoplusia ni); assay: Bioassay on Cabbage Looper (CL), 128-well diet tray assay; assay type: in vivo; conditions: for mortality at 0.05 µg/cm2 / mortality at 0.5 µg/cm2 / mortality at 5 µg/cm2: 168 h, second instar larvae, five to seven days, read-out: CL Percent control (or mortality); for mortality at 0.05 µg/cm2: 0.05 μg/cm^2 on artificial diet; for mortality at 0.5 µg/cm2: 0.5 μg/cm^2 on artificial diet; for mortality at 5 µg/cm2: 5 μg/cm^2 on artificial diet; for pest or weed control at 50 µg/cm2: Cabbage Looper, Table ABC, read-out: CL rating
Procedure: (§1) Example A: Bioassays on Beet Armyworm (Spodoptera Exigua, LAPHEG) (“BAW”), Corn Earworm (Helicoverpa Zea, HELIZE) (“CEW”), and Cabbage Looper (Trichoplusia Ni, TRIPNI) (“CL”)
(§2) Certain molecules disclosed in this document were tested against BAW, CEW, and CL using procedures described in the following examples. In the reporting of the results, the “BAW, CEW, & CL Rating Table” was used (See Table Section).
Bioassays on CL were conducted using a 128-well diet tray assay. One to five second instar CL larvae were placed in each well (3 mL) of the diet tray that had been previously filled with 1 mL of artificial diet to which 50 μg/cm^2 of the test molecule (dissolved in 50 μL of 90:10 acetone-water mixture) had been applied (to each of eight wells) and then allowed to dry. Trays were covered with a clear self-adhesive cover and held at 25° C., 14:10 light-dark for five to seven days. Percent mortality was recorded for the larvae in each well; activity in the eight wells was then averaged. The results are indicated in the table entitled “Table ABC: Biological Results” (See Table Section).
(§3) Bioassays on BAW and CL were conducted according to the procedures outlined in Example A: Bioassays on Beet Armyworm (“BAW”) and Cabbage Looper (“CL”) using the indicated concentrations.

[2] = tested on: Beet Armyworm (Spodoptera exigua); assay: Bioassay on Beet Armyworm (BAW), 128-well diet tray assay; assay type: in vivo; conditions: for mortality at 0.05 µg/cm2 / mortality at 0.5 µg/cm2 / mortality at 5 µg/cm2: 168 h, second instar larvae, five to seven days, read-out: BAW Percent control (or mortality); for mortality at 0.05 µg/cm2: 0.05 μg/cm^2 on artificial diet; for mortality at 0.5 µg/cm2: 0.5 μg/cm^2 on artificial diet; for mortality at 5 µg/cm2: 5 μg/cm^2 on artificial diet; for pest or weed control at 50 µg/cm2: Beet Armyworm, Table ABC, read-out: BAW rating
Procedure: as §1, §2
Bioassays on BAW were conducted using a 128-well diet tray assay. One to five second instar BAW larvae were placed in each well (3 mL) of the diet tray that had been previously filled with 1 mL of artificial diet to which 50 μg/cm^2 of the test molecule (dissolved in 50 μL of 90:10 acetone-water mixture) had been applied (to each of eight wells) and then allowed to dry. Trays were covered with a clear self-adhesive cover and held at 25° C., 14:10 light-dark for five to seven days. Percent mortality was recorded for the larvae in each well; activity in the eight wells was then averaged. The results are indicated in the table entitled “Table ABC: Biological Results” (See Table Section).
as §3

SMILES | mortality at 0.05 µg/cm2 [1] | mortality at 0.5 µg/cm2 [1] | mortality at 5 µg/cm2 [1] | pest or weed control at 50 µg/cm2 [1] | mortality at 0.05 µg/cm2 [2] | mortality at 0.5 µg/cm2 [2] | mortality at 5 µg/cm2 [2] | pest or weed control at 50 µg/cm2 [2]
O=C(CNC(=O)c1ccc(/C(F)=C/C(c2cc(Cl)c(Cl)c(Cl)c2)C(F)(F)F)cc1Br)NCC(F)(F)F (centres unmarked) [F19, (Z)-2-Bromo-N-(2-oxo-2-((2,2,2-trifluoroethyl)amino)ethyl)-4-(1,4,4,4-tetrafluoro-3-(3,4,5-trichlorophenyl)but-1-en-1-yl)benzamide] | 100% | 100% | 100% | 50 to 100% | 100% | 100% | 100% | 50 to 100%
CCN(CC(F)(F)F)C(=O)[C@@H](C)NC(=O)c1ccc(/C(F)=C/C(c2cc(Cl)c(Cl)c(Cl)c2)C(F)(F)F)cc1C(F)(F)F (stereo partly drawn) [F20, N—((R)-1-(Ethyl(2,2,2-trifluoroethyl)amino)-1-oxopropan-2-yl)-4-((Z)-1,4,4,4-tetrafluoro-3-(3,4,5-trichlorophenyl)but-1-en-1-yl)-2-(trifluoromethyl)benzamide] | – | – | – | 50 to 100% | – | – | – | 50 to 100%
O=C(NC1(C(=O)NCC(F)(F)F)CC1)c1ccc(/C(F)=C/C(c2cc(Cl)c(Cl)c(Cl)c2)C(F)(F)F)cc1Br (centres unmarked) [F21, (Z)-2-Bromo-4-(1,4,4,4-tetrafluoro-3-(3,4,5-trichlorophenyl)but-1-en-1-yl)-N-(1-((2,2,2-trifluoroethyl)carbamoyl)cyclopropyl)benzamide] | – | – | – | 50 to 100% | – | – | – | 50 to 100%
O=C(CNC(=O)c1ccc(/C(F)=C/C(c2cc(Cl)c(Cl)c(Cl)c2)C(F)(F)F)cc1Cl)NCC(F)(F)F (centres unmarked) [F22, (Z)-2-Chloro-N-(2-oxo-2-((2,2,2-trifluoroethyl)amino)ethyl)-4-(1,4,4,4-tetrafluoro-3-(3,4,5-trichlorophenyl)but-1-en-1-yl)benzamide] | 100% | 100% | 100% | 50 to 100% | 100% | 100% | 100% | 50 to 100%
C[C@@H](NC(=O)c1ccc(/C(F)=C/C(c2cc(Cl)c(Cl)c(Cl)c2)C(F)(F)F)cc1Cl)C(=O)NCC(F)(F)F (stereo partly drawn) [F23, 2-Chloro-N—((R)-1-oxo-1-((2,2,2-trifluoroethyl)amino)propan-2-yl)-4-((Z)-1,4,4,4-tetrafluoro-3-(3,4,5-trichlorophenyl)but-1-en-1-yl)benzamide] | 100% | 100% | 100% | 50 to 100% | 81% | 100% | 100% | 50 to 100%
CON(CC(F)(F)F)C(=O)[C@@H](C)NC(=O)c1ccc(/C(F)=C/C(c2cc(Cl)c(Cl)c(Cl)c2)C(F)(F)F)cc1C(F)(F)F (stereo partly drawn) [F24, N—((R)-1-(Methoxy(2,2,2-trifluoroethyl)amino)-1-oxopropan-2-yl)-4-((Z)-1,4,4,4-tetrafluoro-3-(3,4,5-trichlorophenyl)but-1-en-1-yl)-2-(trifluoromethyl)benzamide] | – | – | – | 50 to 100% | – | – | – | 50 to 100%
CCN(CC(F)(F)F)C(=O)[C@@H](C)NC(=O)c1ccc(/C(F)=C/C(c2cc(Cl)c(Cl)c(Cl)c2)C(F)(F)F)cc1Br (stereo partly drawn) [F25, 2-Bromo-N—((R)-1-(ethyl(2,2,2-trifluoroethyl)amino)-1-oxopropan-2-yl)-4-((Z)-1,4,4,4-tetrafluoro-3-(3,4,5-trichlorophenyl)but-1-en-1-yl)benzamide] | – | – | – | 50 to 100% | – | – | – | 50 to 100%
Cc1cc(/C(F)=C/C(c2cc(Cl)c(Cl)c(Cl)c2)C(C)(F)F)ccc1C(=O)N[C@H](C)C(=O)NCC(F)(F)F (stereo partly drawn) [F26, 2-Methyl-N—((R)-1-oxo-1-((2,2,2-trifluoroethyl)amino)propan-2-yl)-4-((Z)-1,4,4-trifluoro-3-(3,4,5-trichlorophenyl)pent-1-en-1-yl)benzamide] | – | – | – | 50 to 100% | – | – | – | 50 to 100%
C=CCON(CC(F)(F)F)C(=O)[C@@H](C)NC(=O)c1ccc(/C(F)=C/C(c2cc(Cl)c(Cl)c(Cl)c2)C(F)(F)F)cc1C(F)(F)F (stereo partly drawn) [F27, N—((R)-1-((Allyloxy)(2,2,2-trifluoroethyl)amino)-1-oxopropan-2-yl)-4-((Z)-1,4,4,4-tetrafluoro-3-(3,4,5-trichlorophenyl)but-1-en-1-yl)-2-(trifluoromethyl)benzamide] | – | – | – | 50 to 100% | – | – | – | 50 to 100%
O=C(NC1(C(=O)NCC(F)(F)F)CC1)c1ccc(/C(F)=C/C(c2cc(Cl)c(Cl)c(Cl)c2)C(F)(F)F)cc1Cl (centres unmarked) [F28, (Z)-2-Chloro-4-(1,4,4,4-tetrafluoro-3-(3,4,5-trichlorophenyl)but-1-en-1-yl)-N-(1-((2,2,2-trifluoroethyl)carbamoyl)cyclopropyl)benzamide] | – | – | – | 50 to 100% | – | – | – | 50 to 100%
C[C@@H](NC(=O)c1ccc(/C(F)=C/C(c2cc(Cl)c(Cl)c(Cl)c2)C(C)(F)F)cc1C(F)(F)F)C(=O)NCC(F)(F)F (stereo partly drawn) [F29, N—((R)-1-Oxo-1-((2,2,2-trifluoroethyl)amino)propan-2-yl)-4-((Z)-1,4,4-trifluoro-3-(3,4,5-trichlorophenyl)pent-1-en-1-yl)-2-(trifluoromethyl)benzamide] | – | – | – | 50 to 100% | – | – | – | 50 to 100%
C[C@@H](NC(=O)c1ccc(/C(F)=C/C(c2cc(Cl)c(Cl)c(Cl)c2)C(F)(F)F)cc1C(F)(F)F)C(=O)NCC(F)F (stereo partly drawn) [F30, N—((R)-1-((2,2-Difluoroethyl)amino)-1-oxopropan-2-yl)-4-((Z)-1,4,4,4-tetrafluoro-3-(3,4,5-trichlorophenyl)but-1-en-1-yl)-2-(trifluoromethyl)benzamide] | – | – | – | 50 to 100% | – | – | – | 50 to 100%
C[C@@H](NC(=O)c1ccc(/C(F)=C/C(c2cc(Cl)c(Cl)c(Cl)c2)C(F)(F)F)cc1Br)C(=O)NCC(F)F (stereo partly drawn) [F31, 2-Bromo-N—((R)-1-((2,2-difluoroethyl)amino)-1-oxopropan-2-yl)-4-((Z)-1,4,4,4-tetrafluoro-3-(3,4,5-trichlorophenyl)but-1-en-1-yl)benzamide] | – | – | – | 50 to 100% | – | – | – | 50 to 100%
C[C@@H](NC(=O)c1ccc(/C(F)=C/C(c2cc(Cl)c(Cl)c(Cl)c2)C(F)(F)F)cc1Cl)C(=O)NCC(F)F (stereo partly drawn) [F32, 2-Chloro-N—((R)-1-((2,2-difluoroethyl)amino)-1-oxopropan-2-yl)-4-((Z)-1,4,4,4-tetrafluoro-3-(3,4,5-trichlorophenyl)but-1-en-1-yl)benzamide] | – | – | – | 50 to 100% | – | – | – | 50 to 100%
CN(CC(F)(F)F)C(=O)CNC(=O)c1ccc(/C(F)=C/C(c2cc(Cl)c(Cl)c(Cl)c2)C(F)(F)F)cc1Cl (centres unmarked) [F47, (Z)-2-Chloro-N-(2-(methyl(2,2,2-trifluoroethyl)amino)-2-oxoethyl)-4-(1,4,4,4-tetrafluoro-3-(3,4,5-trichlorophenyl)but-1-en-1-yl)benzamide] | – | – | – | 50 to 100% | – | – | – | 50 to 100%
CN(CC(F)(F)F)C(=O)CNC(=O)c1ccc(/C(F)=C/C(c2cc(Cl)c(Cl)c(Cl)c2)C(F)(F)F)cc1Br (centres unmarked) [F48, (Z)-2-Bromo-N-(2-(methyl(2,2,2-trifluoroethyl)amino)-2-oxoethyl)-4-(1,4,4,4-tetrafluoro-3-(3,4,5-trichlorophenyl)but-1-en-1-yl)benzamide] | – | – | – | 50 to 100% | – | – | – | 50 to 100%
